Assay results: patent US20040170622A1, “Methods and compositions for modulating XBP-1 activity” (President and Fellows of Harvard College, priority 2002, published 2004)
Where a SMILES comes first, the peptide text is derived from it. The star is where a group is joined. Cbz = O=C(OCc1ccccc1)*

Columns and labels:
Format in all cases: cell-based
[1] = system: IRE1α-mediated XBP-1 mRNA splicing; test: XBP-1 mRNA level and splicing in J558 cells (Northern blot, RT-PCR); settings: for XBP-1 mRNA splicing, agent alone (RT-PCR) / overall levels of XBP-1 RNA (Northern blot): J558 cells
Method: (A) XBP-1 mRNA levels in ER stressed J558 cells treated with Tm for 4 hrs in the absence or presence of MG-132. Cells were pretreated with MG-132 for 1 hr before adding Tm. XBP-1 mRNA levels were determined by Northern blot analysis. […] (C) Effect of a panel of PIs on XBP-1 splicing. Cells were treated with Tm for 4 hrs in the absence or presence of MG-132 (10 μM), PS-341 (10 μM), Lactacystin (10 μM), ZL3VS (50 μM) or AdaAhxL3VS (50 μM), and XBP-1 mRNA splicing measured by RT-PCR analysis. (D) IRE-1α phosphorylation in NIH3T3 cells were treated with Tm as indicated after 2 hrs of pretreatment with MG-132 (10 μM).
Total RNA was prepared by using Trizol reagent, electrophoresed on 1.2% agarose, 6% formaldehyde gels and then transferred onto Genescreen Plus membrane, (NEN, Boston, Mass.). […] Probes for ERdj4 and p58^IPK were generated from cDNA excised from EST clones (ATCC, Manassas, Va.) using appropriate restriction enzymes (ERdj4, IMAGE: 1920927; p58^IPK, IMAGE:2646147).

J558 myeloma cells = test: Apoptosis of J558 myeloma cells (Annexin V staining); settings: for apoptosis, combination of Tm and MG-132: J558, 18 hrs, suboptimal concentrations
Method: (A) BiP and CHOP induction was examined by northern blot analysis after treating NIH3T3 or J558 myeloma cells with either MG-132 (20 μM), Tm (10 μg/ml) or both. Cells were pretreated with MG-132 for 1 hr and then further treated with Tm for 4 hrs. Ethidium bromide staining of the gel is shown at the bottom. (B) Inhibition of caspase-12 processing by proteasome inhibitors. Processing of full-length caspase-12 was examined by Western blotting in J558 myeloma cells treated with thapsigargin (1 μM) or PIs (20 μM) during the indicated time periods. (C) Alteration in the ratio of XBP-1 protein species in J558 cells were treated with increasing amounts of MG-132 for 16 hrs. Cells undergoing apoptosis were counted by Annexin V staining. (D) Time course of the XBP-1s to XBP-1u shift. Cells were treated with MG-132 (1 μM) for the indicated times and XBP-1u and spliced protein levels and cell death determined. (E) Alteration in the ratio of XBP-1 species in the MM.1s human myeloma line. Cells were treated with PS-341 (8 nM) in a time course analysis and XBP-1 protein species quantified.
(A) Synergistic effect of Tm and MG-132 on apoptosis. Annexin V positive cells were counted after treating J558 cells for 18 hrs with suboptimal concentrations of Tm and MG-132 as indicated. (B) J558-iXBP cells were generated by retroviral transduction of J558 cells with the U6 promoter based XBP-1 RNAi vector. (C) XBP-1 dependent gene expression in J558 cells that express control GFP, dn-XBP or iXBP-1 treated with Tm. Generation of dn-XBP-1 J558 cells by infection with a retrovirus containing dn-XBP cDNA inserted into the GFP-RV vector (N. N. lwakoshi et al., Nature Immunology 4, 321-329 (2003)). ERdj4, p58^IPK, BiP and CHOP gene expression were examined by Northern blot analysis. (D) Increased apoptosis in iXBP-1 and dn-XBP-1 expressing J558 cells. Cells were treated with the indicated amounts of Tm for 48 hrs and dead cells counted after Annexin V staining.
Cells were stained with annexin V-PE (BD PharMingen, San Jose, Calif.) as recommended and analyzed on a FACScan flow cytometer (Becton Dickinson, San Jose, Calif.).

XBP-1s = test: UPRE-luciferase reporter in NIH3T3 cells
Method: (A) Ubiquitination of XBP-1 in HeLa cells were cotransfected with XBP-1u and His-tagged ubiquitin expression plasmids. (B) Degradation rates of XBP-1u and XBP-1s proteins were determined by pulse labeling J558 cells with ^35S Met/Cys for 1 hr and chasing for the indicated times. (C) Effect of XBP-1u on XBP-1s dependent UPRE activation in PI-treated NIH3T3 cells with 8-fold excess of XBP-1u plasmids. Transfected cells were treated with MG-132 for 16 hrs before harvesting for luciferase assays. Values represent fold induction of activity compared to the reporter alone after normalizing to Renilla. (D) Generation and expression of lysine to arginine XBP-1u mutants. Two or three lysine residues in the C-terminus of XBP-1u were replaced by arginine to generate XBP-1uKK (235, 252) and XBP-1uKKK(146, 235, 252) by site-directed mutagenesis. dn-XBP contains the N-terminal 188 aa of XBP-1u. Western blot analysis was performed with NIH3T3 extracts transfected with the indicated plasmids. E) Inhibition of XBP-1 dependent activation of the UPRE reporter in NIH 3T3 cells by XBP-1u lysine to arginine mutants.
Two or three lysine residues in the C-terminus of XBP-1u were replaced by arginines to generate XBP-1uKK (K235R, K252R) and XBP-1uKKK(K146R, K235R, K252R) by site-directed mutagenesis (Iwakoshi et al.2003 Nature Immunology 4: 321-329). dn-XBP contains the N-terminal 188 aa of XBP-1u. NTH3T3 cells were transfected by using the Lipofectamine2000 reagent as recommended by the manufacturer (Invitrogen, Carlsbad, Calif.) with indicated amount of UPRE (UPR element) reporter (Wang et al. 2000 J Biol Chem 275: 27013-27020) and various effector plasmids. Cells were treated for 16 hours before harvest in certain experiments. Cells were lysed in passive lysis buffer for dual luciferase assays according to the manufacturer's protocol (Promega, Madison, Wis.).

| Molecule | XBP-1 mRNA splicing, agent alone (RT-PCR) [1] | overall levels of XBP-1 RNA (Northern blot) [1] | apoptosis, combination of Tm and MG-132 (J558 myeloma cells) | further results |
| --- | --- | --- | --- | --- |
| CC(C)C[C@@H](C=O)NC(=O)[C@H](CC(C)C)NC(=O)[C@H](CC(C)C)NC(=O)OCc1ccccc1 [MG-132] (Cbz-Leu-Leu-Leu-aldehyde) | did not induce any XBP-1mRNA splicing | not significantly altered | synergistically induced apoptosis | effect on Tm-induced XBP-1 mRNA splicing ([1]; J558, Tm 4 hrs, MG-132 10 μM, PS-341 10 μM, ZL3VS 50 μM, AdaAhxL3VS 50 μM): suppressed by MG-132 in a dose dependent manner; apoptosis in J558 cells (J558 myeloma cells; agent alone): induced apoptosis in J558 cells |
| tunicamycin [Tm] | markedly induced XBP-1 mRNA splicing | not significantly altered | synergistically induced apoptosis |  |
| XBP-1s: vector encoding only the spliced form of murine XBP-1, a protein of 371 aa (protein) MVVVAAAPSAATAAPKVLLLSGQPASGGRALPLMVPGPRAAGSEASGTPQARKRQRLTHLSPEEKALRRKLKNRVAAQTARDRKKARMSELEQQVVDLEEENHKLQLENQLLREKTHGLVVENQELRTRLGMDTLDPDEVPEVEAKGSGVRLVAGSAESAAGAGPVVTSPEHLPMDSDTVASSDSESDILLGILDKLDPVMFFKCPSPESASLEELPEVYPEGPSSLPASLSLSVGTSSAKLEAINELIRFDHVYTKPLVLEIPSETESQTNVVVKIEEAPLSSSEEDHPEFIVSVKKEPLEDDFIPELGISNLLSSSHCLRPPSCLLDAHSDCGYEGSPSPFSDMSSPLGTDHSWEDTFANELFPQLISV |  |  |  | UPRE reporter activity (XBP-1s; in the absence of treatment): greatly increased reporter activity |
| dn-XBP: dominant negative XBP-1 containing the N-terminal 188 aa, lacking transactivation domain, retaining leucine zipper (protein) MVVVAAAPSAATAAPKVLLLSGQPASGGRALPLMVPGPRAAGSEASGTPQARKRQRLTHLSPEEKALRRKLKNRVAAQTARDRKKARMSELEQQVVDLEEENHKLQLENQLLREKTHGLVVENQELRTRLGMDTLDPDEVPEVEAKGSGVRLVAGSAESAAGAGPVVTSPEHLPMDSDTVASSDSESD |  |  |  | apoptosis upon Tm treatment compared to control GFP-transduced cells (J558 myeloma cells; transduced J558 cells, Tm 48 hrs): significantly increased apoptosis; cell proliferation or viability at baseline (J558 myeloma cells; transduced J558 cells, no Tm): No effect on cell proliferation or viability; effect on transactivation of UPRE reporter by XBP-1s (XBP-1s; in the absence of PIs): inhibits XBP-1s -induced transactivation very efficiently |
